Patent publication US11286281B2, “Homodetic cyclic peptides targeting alpha-4-beta-7 integrin” (priority 2017, dated 2022)
Numbered stars: 1 amine (or outer) side, 2 acyl side, 3 side chain; on linkers, the order of the positions; unused ones are H or OH. Square brackets hold non-standard residues; d marks the D form. Peptide text beside a SMILES is read from it. X1 = O=C(c1ccc(-c2ccc(N3CCNCC3)cc2)c(CN[*:1])c1)[*:2]

Target: T1, integrin α4β7 (Homo sapiens, UniProt P13612+P26010)
T1 construct: purchased R&D Systems 5397-A3-050
T1 sequence (P13612 34-970 limits assumed): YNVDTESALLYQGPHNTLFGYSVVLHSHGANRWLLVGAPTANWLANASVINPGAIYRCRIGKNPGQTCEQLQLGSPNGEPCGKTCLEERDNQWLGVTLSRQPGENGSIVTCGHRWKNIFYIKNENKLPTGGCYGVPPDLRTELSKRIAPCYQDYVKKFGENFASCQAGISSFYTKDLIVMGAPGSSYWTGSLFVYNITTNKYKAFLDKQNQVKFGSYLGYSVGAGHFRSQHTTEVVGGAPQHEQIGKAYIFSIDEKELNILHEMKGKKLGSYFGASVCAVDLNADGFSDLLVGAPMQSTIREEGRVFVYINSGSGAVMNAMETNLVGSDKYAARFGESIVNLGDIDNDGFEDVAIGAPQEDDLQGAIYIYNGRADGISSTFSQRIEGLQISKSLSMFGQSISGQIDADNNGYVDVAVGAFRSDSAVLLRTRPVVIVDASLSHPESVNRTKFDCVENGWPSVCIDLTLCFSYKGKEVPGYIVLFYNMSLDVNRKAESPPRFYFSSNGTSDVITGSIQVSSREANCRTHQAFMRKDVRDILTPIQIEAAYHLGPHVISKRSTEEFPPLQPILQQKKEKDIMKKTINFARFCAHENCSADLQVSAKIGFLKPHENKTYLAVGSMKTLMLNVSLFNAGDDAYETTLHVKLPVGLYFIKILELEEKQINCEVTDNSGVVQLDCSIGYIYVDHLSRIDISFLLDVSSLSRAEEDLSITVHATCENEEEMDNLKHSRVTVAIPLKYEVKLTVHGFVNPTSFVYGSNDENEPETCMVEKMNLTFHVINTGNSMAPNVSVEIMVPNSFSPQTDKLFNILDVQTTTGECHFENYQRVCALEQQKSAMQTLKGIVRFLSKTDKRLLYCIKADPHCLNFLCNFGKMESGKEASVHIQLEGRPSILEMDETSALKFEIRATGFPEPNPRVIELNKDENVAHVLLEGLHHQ
T1 sequence (P26010 20-723 limits assumed): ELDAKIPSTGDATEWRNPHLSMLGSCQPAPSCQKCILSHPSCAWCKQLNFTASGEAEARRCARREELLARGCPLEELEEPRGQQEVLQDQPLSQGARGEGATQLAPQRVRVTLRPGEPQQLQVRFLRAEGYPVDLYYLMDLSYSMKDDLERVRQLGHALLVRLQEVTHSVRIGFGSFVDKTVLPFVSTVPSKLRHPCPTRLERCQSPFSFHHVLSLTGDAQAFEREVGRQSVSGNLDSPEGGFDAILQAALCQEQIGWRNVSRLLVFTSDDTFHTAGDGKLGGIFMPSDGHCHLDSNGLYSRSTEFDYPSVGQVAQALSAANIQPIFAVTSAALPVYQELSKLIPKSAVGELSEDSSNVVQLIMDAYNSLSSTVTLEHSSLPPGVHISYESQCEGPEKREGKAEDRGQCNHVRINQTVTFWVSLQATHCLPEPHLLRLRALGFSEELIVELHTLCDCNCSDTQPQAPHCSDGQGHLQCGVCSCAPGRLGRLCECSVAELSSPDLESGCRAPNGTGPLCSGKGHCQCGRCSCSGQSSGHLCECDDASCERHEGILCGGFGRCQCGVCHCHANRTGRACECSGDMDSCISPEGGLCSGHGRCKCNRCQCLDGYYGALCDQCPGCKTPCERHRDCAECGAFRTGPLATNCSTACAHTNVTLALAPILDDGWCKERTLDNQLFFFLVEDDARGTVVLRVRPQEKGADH
Test: Integrin α4β7-MAdCAM-1 ELISA competition assay
Type: binding
Details: values of the second run
Protocol: Integrin α4β7-MAdCAM-1 ELISA Competition Assay
A 96-well Microlon plate (Greiner, 655001) was coated with 100 μl per well of a solution of 1 μg/ml recombinant integrin α4β7 (R&D Systems, 5397-A3-050) in carbonate buffer (50 mM, pH 9.6). The plate was incubated at 4′C overnight. The solution was removed and 250 μl blocking buffer (50 mM Tris, 150 mM NaCl, 1 mM MnCl2, 1% BSA, 0.05% Tween) was added per well. The plate was then incubated for 1 hour at room temperature. The plate was washed three times with wash buffer (50 mM Tris, 100 mM NaCl, 1 mM MnCl2, 0.05% Tween). To each well, 50 μl of compound diluted in assay buffer was added by transfer from a compound serial dilution plate. 50 μl recombinant MAdCAM-Fc (R&D systems, 6056-MC-050) at a concentration of 0.1 μg/ml in assay buffer (50 mM Tris, 150 mM NaCl, 1 mM MnCl2, 0.1% BSA, 0.05% Tween) was added to each well. The plate was incubated at room temperature with shaking (300 rpm) for 2 hours to reach binding equilibrium. Then the plate was washed three times in wash buffer and 100 μl anti-human IgG Fc specific-HRP (Abcam, Ab97225) diluted at 1:2000 in assay buffer was added to each well. The plate was incubated at room temperature for 1 hour under agitation. […] The reaction was stopped after 2 minute-incubation by adding 50 μl of 1M H2SO4 and optical absorbance was read at 450 nm.

CC(C)C[C@@H]1NC(=O)c2ccc(-c3ccc(N4CCNCC4)cc3)c(c2)CNC(=O)[C@@H]2CCCN2C(=O)[C@H](C)NC(=O)[C@H]([C@@H](C)O)NC(=O)[C@H](CC(=O)O)NC1=O [Compound 8] (cyclo(P[X1]LDTA)) was tested. Which IC50 did it give?
Its IC50 is ~24 nM.
